Laboratory results: Sander's compilation of Henry's law constants (doi:10.1021/es020599y)

Assay: Henry solubility constant Hcp at 298.15 K (mol/(m3 Pa))
Details: reference: Bamford et al. (2002)

| Compound | Henry solubility constant Hcp |
| --- | --- |
| Clc1cc(-c2cc(Cl)c(Cl)c(Cl)c2Cl)c(Cl)c(Cl)c1Cl [2,2',3,3',4,4',5,5'-octachlorobiphenyl] | 0.1 |
| Clc1ccc(-c2c(Cl)c(Cl)cc(Cl)c2Cl)c(Cl)c1Cl [2,2',3,3',4,5',6'-heptachlorobiphenyl] | 0.021 |
| Clc1cc(-c2c(Cl)ccc(Cl)c2Cl)c(Cl)c(Cl)c1Cl [2,2',3,3',4,5,6'-heptachlorobiphenyl] | 0.022 |
| Clc1cccc(-c2ccc(Cl)c(Cl)c2Cl)c1Cl [2,2',3,3',4-pentachlorobiphenyl] | 0.027 |
| Clc1cc(Cl)c(Cl)c(-c2c(Cl)ccc(Cl)c2Cl)c1 [2,2',3,3',5,6'-hexachlorobiphenyl] | 0.015 |
| Clc1cc(Cl)c(Cl)c(-c2cccc(Cl)c2Cl)c1 [2,2',3,3',5-pentachlorobiphenyl] | 0.023 |
| Clc1ccc(Cl)c(-c2c(Cl)ccc(Cl)c2Cl)c1Cl [2,2',3,3',6,6'-hexachlorobiphenyl] | 0.009 |
| Clc1cccc(-c2cccc(Cl)c2Cl)c1Cl [2,2',3,3'-tetrachlorobiphenyl] | 0.036 |
| Clc1cc(Cl)c(-c2c(Cl)ccc(Cl)c2Cl)cc1Cl [2,2',3,4',5',6-hexachlorobiphenyl] | 0.015 |
| Clc1cc(Cl)c(-c2cccc(Cl)c2Cl)cc1Cl [2,2',3,4',5'-pentachlorobiphenyl] | 0.023 |
| Clc1cc(Cl)c(Cl)c(-c2cc(Cl)c(Cl)cc2Cl)c1 [2,2',3,4',5,5'-hexachlorobiphenyl] | 0.017 |
| Clc1ccc(-c2c(Cl)ccc(Cl)c2Cl)c(Cl)c1 [2,2',3,4',6-pentachlorobiphenyl] | 0.019 |
| Clc1ccc(-c2cccc(Cl)c2Cl)c(Cl)c1 [2,2',3,4'-tetrachlorobiphenyl] | 0.028 |
| Clc1cc(Cl)c(-c2c(Cl)cc(Cl)c(Cl)c2Cl)cc1Cl [2,2',3,4,4',5',6-heptachlorobiphenyl] | 0.017 |
| Clc1cc(Cl)c(-c2cc(Cl)c(Cl)c(Cl)c2Cl)c(Cl)c1 [2,2',3,4,4',5,6'-heptachlorobiphenyl] | 0.017 |
| Clc1ccc(-c2cc(Cl)c(Cl)c(Cl)c2Cl)c(Cl)c1 [2,2',3,4,4',5-hexachlorobiphenyl] | 0.045 |
| Clc1ccc(-c2ccc(Cl)c(Cl)c2Cl)c(Cl)c1 [2,2',3,4,4'-pentachlorobiphenyl] | 0.023 |
| Clc1ccc(Cl)c(-c2cc(Cl)c(Cl)c(Cl)c2Cl)c1 [2,2',3,4,5,5'-hexachlorobiphenyl] | 0.02 |
| Clc1ccc(-c2c(Cl)cccc2Cl)c(Cl)c1Cl [2,2',3,4,6'-pentachlorobiphenyl] | 0.022 |
| Clc1ccc(Cl)c(-c2c(Cl)ccc(Cl)c2Cl)c1 [2,2',3,5',6-pentachlorobiphenyl] | 0.021 |
| Clc1cccc(-c2c(Cl)cccc2Cl)c1Cl [2,2',3,6'-tetrachlorobiphenyl] | 0.03 |
| Clc1ccccc1-c1cccc(Cl)c1Cl [2,2',3-trichlorobiphenyl] | 0.042 |
| Clc1ccc(-c2cc(Cl)c(Cl)cc2Cl)c(Cl)c1 [2,2',4,4',5-pentachlorobiphenyl] | 0.021 |
| Clc1ccc(-c2cc(Cl)ccc2Cl)c(Cl)c1 [2,2',4,5'-tetrachlorobiphenyl] | 0.027 |
| Clc1cc(Cl)c(-c2ccccc2Cl)cc1Cl [2,2',4,5-tetrachlorobiphenyl] | 0.027 |
| Clc1ccc(-c2ccccc2Cl)c(Cl)c1 [2,2',4-trichlorobiphenyl] | 0.033 |

| Compound | Henry solubility constant Hcp |
| --- | --- |
| Clc1ccccc1-c1c(Cl)cccc1Cl [2,2',6-trichlorobiphenyl] | 0.033 |
| Clc1ccccc1-c1ccccc1Cl [2,2'-dichlorobiphenyl] | 0.046 |
| Clc1ccc(Cl)c(-c2ccc(Cl)c(Cl)c2)c1 [2,3',4',5-tetrachlorobiphenyl] | 0.033 |
| Clc1ccc(-c2ccccc2Cl)cc1Cl [2,3',4'-trichlorobiphenyl] | 0.036 |
| Clc1cc(Cl)c(-c2cc(Cl)c(Cl)c(Cl)c2)cc1Cl [2,3',4,4',5,5'-hexachlorobiphenyl] | 0.027 |
| Clc1cc(Cl)c(-c2ccc(Cl)c(Cl)c2)c(Cl)c1 [2,3',4,4',6-pentachlorobiphenyl] | 0.015 |
| Clc1cccc(-c2ccc(Cl)cc2Cl)c1 [2,3',4-trichlorobiphenyl] | 0.033 |
| Clc1cccc(-c2cc(Cl)ccc2Cl)c1 [2,3',5-trichlorobiphenyl] | 0.035 |
| Clc1cccc(-c2ccccc2Cl)c1 [2,3'-dichlorobiphenyl] | 0.043 |
| Clc1cc(-c2c(Cl)c(Cl)cc(Cl)c2Cl)cc(Cl)c1Cl [2,3,3',4',5,5',6-heptachlorobiphenyl] | 0.032 |
| Clc1cc(Cl)c(Cl)c(-c2ccc(Cl)c(Cl)c2)c1 [2,3,3',4',5-pentachlorobiphenyl] | 0.043 |
| Clc1ccc(-c2c(Cl)ccc(Cl)c2Cl)cc1Cl [2,3,3',4',6-pentachlorobiphenyl] | 0.023 |
| Clc1ccc(-c2cccc(Cl)c2Cl)cc1Cl [2,3,3',4'-tetrachlorobiphenyl] | 0.038 |
| Clc1cc(-c2ccc(Cl)c(Cl)c2Cl)cc(Cl)c1Cl [2,3,3',4,4',5'-hexachlorobiphenyl] | 0.034 |
| Clc1ccc(-c2cc(Cl)c(Cl)c(Cl)c2Cl)cc1Cl [2,3,3',4,4',5-hexachlorobiphenyl] | 0.029 |
| Clc1ccc(-c2c(Cl)cc(Cl)c(Cl)c2Cl)cc1Cl [2,3,3',4,4',6-hexachlorobiphenyl] | 0.021 |
| Clc1ccc(-c2cc(Cl)cc(Cl)c2Cl)cc1 [2,3,4',5-tetrachlorobiphenyl] | 0.025 |
| Clc1ccc(-c2c(Cl)ccc(Cl)c2Cl)cc1 [2,3,4',6-tetrachlorobiphenyl] | 0.025 |
| Clc1ccc(Cl)c(-c2ccccc2)c1Cl [2,3,6-trichlorobiphenyl] | 0.033 |
| Clc1cccc(-c2ccccc2)c1Cl [2,3-dichlorobiphenyl] | 0.043 |
| Clc1ccc(-c2cc(Cl)ccc2Cl)cc1 [2,4',5-trichlorobiphenyl] | 0.034 |
| Clc1ccc(-c2ccccc2)c(Cl)c1 [2,4-dichlorobiphenyl] | 0.037 |
| Clc1cc(-c2cc(Cl)c(Cl)c(Cl)c2)cc(Cl)c1Cl [3,3',4,4',5,5'-hexachlorobiphenyl] | 0.047 |
| Clc1ccc(-c2cccc(Cl)c2)cc1 [3,4'-dichlorobiphenyl] | 0.049 |
| Clc1ccc(-c2cc(Cl)c(Cl)c(Cl)c2)cc1 [3,4,4',5-tetrachlorobiphenyl] | 0.041 |
